Tests used:
[1] = tested on: advanced solid malignancies; experiment: ProGem1 phase I study: clinical efficacy; type: in vivo, human; settings: patients with advanced progressive cancers who have exhausted all standard therapeutic options, many resistant or refractory to prior nucleoside analogue therapy
Excerpt: (§1) ProGem1 was a first-time-in-human (FTIH), phase I, open label, two stage study to investigate the safety, tolerability, clinical efficacy, pharmacokinetics (PK) and pharmacodynamics (PD) of NUC-1031 given in two parallel dosing schedules in subjects with advanced solid malignancies (EudraCT Number: 2011-005232-26). Subjects had the following tumour types at study entry: colorectal cancer (7 subjects), unknown primary (3), ovarian cancer (12), breast cancer (4), pancreatic cancer (9), cholangiocarcinoma (7), endometrial cancer (3), cervical cancer (2), lung cancer (7), mesothelioma (3), oesophageal cancer (3), cancer of the fallopian tube (1), trophoblast (1), renal cancer (1), gastric cancer (1), anal cancer (1), cancer of the thymus (1) and osteosarcoma (1).

[2] = ProGem1 phase I study: pharmacokinetics (intracellular dFdCTP, dFdU); type: in vivo, human; settings: relative to levels normally associated with gemcitabine
Excerpt: as §1

[3] = stability stress testing of crystalline form; type: physicochemical; settings: ambient light, 40° C. and 75% relative humidity, 7 days
Excerpt: Form VIII appeared physically stable upon stability stress testing.

## C[C@H](NP(=O)(OC[C@H]1O[C@@H](n2ccc(N)nc2=O)C(F)(F)C1O)Oc1ccccc1)C(=O)OCc1ccccc1 (stereo partly shown) [NUC-1031]
[1]
  anti-tumour activity: anti-tumour activity
[2]
  levels of the potentially toxic metabolite 2′,2′-difluoro-2′-deoxyuridine (dFdU) released, relative to gemcitabine: less than half

## C[C@H](N[P@](=O)(OC[C@H]1O[C@@H](n2ccc(N)nc2=O)C(F)(F)C1O)Oc1ccccc1)C(=O)OCc1ccccc1 (stereo partly shown) [Form VIII]
[3]
  change in crystalline form upon storage: No change in crystalline form
  decrease in purity upon storage: no decrease in purity
